US11034648B2, “Cystobactamide derivatives” (priority 2017, dated 2021)
Values after ≈ are worked out from the molar mass of the structure shown. Read-outs that look alike come from different tables or passages of the source.

Assays:
Type in all cases: cell-based
E. coli ΔtolC = test: microbe, parasite or virus in culture; conditions: Escherichia coli, 16 h, read-out: MIC E. coli ΔtolC, small panel, Tables 1a/1b; no visual growth after approx. 16 h
Description: (§1) Cystobactamid derivatives synthesized were tested against relevant Gram negative and positive bacteria of clinical interest. Experimental procedures used for the biological characterization of the compounds are the same as previously described in WO 2016/082934.
(§2) Bacterial strains used in susceptibility assays (minimum inhibitory concentration, MIC) were either part of our internal strain collection or purchased from the German Collection of Microorganisms and Cell Cultures (Deutsche Sammlung von Mikroorganismen und Zellkulturen, DSMZ) and the American Type Culture Collection (ATCC). The susceptible E. coli strain (WT) and fluoroquinolone-resistant mutants E. coli WT-3 and WT-III were kindly provided by Prof Dr. P. Heisig, Pharmaceutical Biology and Microbiology, University of Hamburg, Germany. The efflux-deficient strain P. aeruginosa ΔmexAB was kindly provided by Prof Dr. S. Häußler, Institute for Molecular Bacteriology, TWINCORE, Hannover, Germany. All compounds were prepared as DMSO stocks and MIC values were determined in standard microbroth dilution assays in 96-well MTPs as described in Baumann et al., Angew Chem Int Ed Engl. 2014; 53(52):14605-9. In brief, overnight cultures of bacteria were diluted in either tryptic soy broth (TSB: 1.7% peptone casein, 0.3% peptone soymeal, 0.25% glucose, 0.5% NaCl, 0.25% K2HPO4; pH 7.3; S. pneumoniae and E. faecalis) or cation-adjusted Müller-Hinton Broth (BBL™, BD; all other bacteria) and adjusted to 10^4-10^6 cfu/mL. Bacteria were grown in the presence of the derivatives in serial dilution for approx. 16 h at 30-37° C. MIC values were determined and were defined as the antibiotic concentration at which no visual growth of bacteria was observed.

P. aeruginosa ΔmexAB = test: microbe, parasite or virus in culture; conditions: Pseudomonas aeruginosa, 16 h, read-out: MIC P. aeruginosa ΔmexAB, efflux-deficient strain; small panel, Tables 1a/1b
Description: as §1, §2

E. coli WT DSM-1116 = test: MIC, microbroth dilution susceptibility assay; conditions: Escherichia coli, no visual growth after approx. 16 h
Description: as §1, §2

C. freundii DSM-30039 = test: MIC, microbroth dilution susceptibility assay; conditions: Citrobacter freundii, DSM30039; large panel, Table 2a
Description: as §1, §2

A. baumannii DSM-30008 = test: MIC, microbroth dilution susceptibility assay; conditions: Acinetobacter baumannii, DSM30008; large panel, Table 2a
Description: as §1, §2

E. aerogenes DSM-30053 = test: MIC, microbroth dilution susceptibility assay; conditions: Klebsiella aerogenes, DSM30053; large panel, Table 2a
Description: as §1, §2

P. aeruginosa WT PA14 = test: MIC, microbroth dilution susceptibility assay; conditions: Pseudomonas aeruginosa
Description: as §1, §2

P. vulgaris DSM-2140 = test: MIC, microbroth dilution susceptibility assay; conditions: Proteus vulgaris, DSM2140; large panel, Table 2a
Description: as §1, §2

K. pneumoniae DSM-30104 = test: MIC, microbroth dilution susceptibility assay; conditions: Klebsiella pneumoniae, DSM30104; large panel, Table 2a
Description: as §1, §2

S. aureus Newman = test: MIC, microbroth dilution susceptibility assay; conditions: Staphylococcus aureus, NEWMAN, read-out: MIC S. aureus Newman
Description: as §1, §2

S. aureus ATCC-29213 = test: MIC, microbroth dilution susceptibility assay; conditions: Staphylococcus aureus, ATCC29213; large panel, Table 2a
Description: as §1, §2

E. coli WT = test: MIC, microbroth dilution susceptibility assay; conditions: Escherichia coli; large panel, Table 2a
Description: as §1, §2

S. marcescens DSM-30121 = test: MIC, microbroth dilution susceptibility assay; conditions: Serratia marcescens, DSM30121; large panel, Table 2a
Description: as §1, §2

[1] = DSM1116, small panel, Tables 1a/1b, read-out: MIC E. coli WT DSM-1116
[2] = PA14, small panel, Tables 1a/1b, read-out: MIC P. aeruginosa WT PA14

## CC(C)Oc1c(N)ccc(C(=O)Nc2ccc(C(=O)N[C@@H](CC(N)=O)C(=O)Nc3ccc(C(=O)Nc4ccc(C(=O)Nc5ccc(C(=O)O)cc5)c(O)c4OC(C)C)cc3)cc2)c1O [Compound 49, (S)-4-(4-(4-(4-amino-2-(4-(4-amino-2-hydroxy-3-isopropoxybenzamido)benzamido)-4-oxobutanamido)benzamido)-2-hydroxy-3-isopropoxybenzamido)benzoic acid]
E. coli ΔtolC
  MIC: 0.01 to 0.06 µg/mL (≈ 0.0114 to 0.0685 µM)
P. aeruginosa ΔmexAB
  MIC: 2 to 4 µg/mL (≈ 2.28 to 4.57 µM)
E. coli WT DSM-1116; [1]
  MIC: 2 µg/mL (≈ 2.28 µM)
C. freundii DSM-30039
  MIC: 2 µg/mL (≈ 2.28 µM)
A. baumannii DSM-30008
  MIC: 32 µg/mL (≈ 36.5 µM)
E. aerogenes DSM-30053
  MIC: > 64 µg/mL
P. aeruginosa WT PA14; [2]
  MIC: > 64 µg/mL
P. vulgaris DSM-2140
  MIC: 4 µg/mL (≈ 4.57 µM)
K. pneumoniae DSM-30104
  MIC: > 64 µg/mL
S. aureus Newman; small panel, Tables 1a/1b
  MIC: > 64 µg/mL
S. aureus ATCC-29213
  MIC: > 64 µg/mL
E. coli WT
  MIC: 2 µg/mL (≈ 2.28 µM)
S. marcescens DSM-30121
  MIC: > 64 µg/mL

## CC(C)Oc1c(NC(=O)c2ccc(NC(=O)c3ccc(NC(=O)[C@H](CC(N)=O)NC(=O)c4ccc(NC(=O)c5ccc([N+](=O)[O-])cc5)cc4)cc3)c(OC(C)C)c2O)ccc(C(=O)O)c1O [Compound 61, (S)-4-(4-(4-(4-amino-2-(4-(4-nitrobenzamido)benzamido)-4-oxobutanamido)benzamido)-2-hydroxy-3-isopropoxybenzamido)-2-hydroxy-3-isopropoxybenzoic acid]
E. coli ΔtolC
  MIC: 0.125 to 0.25 µg/mL (≈ 0.138 to 0.276 µM)
P. aeruginosa ΔmexAB
  MIC: 1 to 2 µg/mL (≈ 1.1 to 2.21 µM)
E. coli WT DSM-1116; [1]
  MIC: 0.5 µg/mL (≈ 0.552 µM)
C. freundii DSM-30039
  MIC: 0.5 µg/mL (≈ 0.552 µM)
A. baumannii DSM-30008
  MIC: 1 µg/mL (≈ 1.1 µM)
E. aerogenes DSM-30053
  MIC: > 64 µg/mL
P. aeruginosa WT PA14; [2]
  MIC: > 64 µg/mL
P. vulgaris DSM-2140
  MIC: 0.5 µg/mL (≈ 0.552 µM)
K. pneumoniae DSM-30104
  MIC: > 64 µg/mL
S. aureus Newman; small panel, Tables 1a/1b
  MIC: 0.05 µg/mL (≈ 0.0552 µM)
S. aureus ATCC-29213
  MIC: 0.05 µg/mL (≈ 0.0552 µM)
E. coli WT
  MIC: 0.5 µg/mL (≈ 0.552 µM)
S. marcescens DSM-30121
  MIC: > 64 µg/mL

## CC(C)Oc1c(NC(=O)c2ccc(NC(=O)c3ccc(NC(=O)[C@H](CC(N)=O)NC(=O)c4ccc(NC(=O)c5ccc(C#N)cc5)cc4)cc3)c(OC(C)C)c2O)ccc(C(=O)O)c1O [Compound 62, (S)-4-(4-(4-(4-amino-2-(4-(4-cyanobenzamido)benzamido)-4-oxobutanamido)benzamido)-2-hydroxy-3-isopropoxybenzamido)-2-hydroxy-3-isopropoxybenzoic acid]
E. coli ΔtolC
  MIC: ≤ 0.03 µg/mL
P. aeruginosa ΔmexAB
  MIC: 1 µg/mL (≈ 1.13 µM)
E. coli WT DSM-1116; [1]
  MIC: 0.25 µg/mL (≈ 0.282 µM)
C. freundii DSM-30039
  MIC: 0.125 µg/mL (≈ 0.141 µM)
A. baumannii DSM-30008
  MIC: 0.5 µg/mL (≈ 0.564 µM)
E. aerogenes DSM-30053
  MIC: > 64 µg/mL
P. aeruginosa WT PA14; [2]
  MIC: > 64 µg/mL
P. vulgaris DSM-2140
  MIC: 0.25 µg/mL (≈ 0.282 µM)
K. pneumoniae DSM-30104
  MIC: > 64 µg/mL
S. aureus Newman; small panel, Tables 1a/1b
  MIC: ≤ 0.03 µg/mL
S. aureus ATCC-29213
  MIC: 0.025 µg/mL (≈ 0.0282 µM)
E. coli WT
  MIC: 0.125 to 0.25 µg/mL (≈ 0.141 to 0.282 µM)
S. marcescens DSM-30121
  MIC: > 64 µg/mL

## C/C(=C\c1ccc(C#N)cc1)C(=O)Nc1ccc(C(=O)N[C@@H](CC(N)=O)C(=O)Nc2ccc(C(=O)Nc3ccc(C(=O)Nc4ccc(C(=O)O)cc4)c(O)c3OCC(C)C)cc2)cc1 [Compound 125, (S,E)-4-(4-(4-(4-amino-2-(4-(3-(4-cyanophenyl)-2-methylacrylamido)benzamido)-4-oxobutanamido)benzamido)-2-hydroxy-3-isobutoxybenzamido)benzoic acid]
E. coli ΔtolC
  MIC: 0.06 µg/mL (≈ 0.0693 µM)
P. aeruginosa ΔmexAB
  MIC: > 64 µg/mL
E. coli WT DSM-1116; [1]
  MIC: 0.5 µg/mL (≈ 0.577 µM)
P. aeruginosa WT PA14; [2]
  MIC: > 64 µg/mL
S. aureus Newman; small panel, Tables 1a/1b
  MIC: 0.06 µg/mL (≈ 0.0693 µM)

## CC(C)COc1c(NC(=O)c2ccc(NC(=O)[C@H](CC(N)=O)NC(=O)c3ccc(NC(=O)c4ccc(C#N)cc4)cc3)cc2)ccc(C(=O)Nc2ccc(C(=O)O)cc2)c1O [Compound 126, (S)-4-(4-(4-(4-amino-2-(4-(4-cyanobenzamido)benzamido)-4-oxobutanamido)benzamido)-2-hydroxy-3-isobutoxybenzamido)benzoic acid]
E. coli ΔtolC
  MIC: < 0.03 µg/mL
P. aeruginosa ΔmexAB
  MIC: > 64 µg/mL
E. coli WT DSM-1116; [1]
  MIC: 0.25 µg/mL (≈ 0.303 µM)
P. aeruginosa WT PA14; [2]
  MIC: > 64 µg/mL
S. aureus Newman; small panel, Tables 1a/1b
  MIC: 0.25 µg/mL (≈ 0.303 µM)

## CC(C)Oc1c(NC(=O)c2ccc(NC(=O)[C@H](CC(N)=O)NC(=O)c3ccc(C#Cc4ccc(C#N)cc4)cc3)cc2)ccc(C(=O)Nc2ccc(C(=O)O)cc2)c1O [Compound 128, (S)-4-(4-(4-(4-Amino-2-(4-((4-cyanophenyl)ethynyl)benzamido)-4-oxobutanamido)benzamido)-2-hydroxy-3-isopropoxybenzamido)benzoic acid]
E. coli ΔtolC
  MIC: 0.06 µg/mL (≈ 0.0757 µM)
P. aeruginosa ΔmexAB
  MIC: 0.5 µg/mL (≈ 0.631 µM)
E. coli WT DSM-1116; DSM1116, 16 h, read-out: MIC E. coli WT DSM-1116, small panel, Tables 1a/1b
  MIC: 0.06 µg/mL (≈ 0.0757 µM)
P. aeruginosa WT PA14; PA14, read-out: MIC P. aeruginosa WT PA14
  MIC: > 64 µg/mL
S. aureus Newman
  MIC: < 0.03 µg/mL
